Experiments:
[1] = test system: Emesis in the Dog; experiment: Emesis in the Dog (apomorphine-induced retching and vomiting); type: in vivo; conditions: adult female dogs; test compound i.v. at the dose of 1.0 mg/kg; 5 min later subcutaneous apomorphine (0.1 mg/0.5 ml/kg); observed for the next 60 min
Description: Individually housed adult female dogs (8 to 15 kg) were given an i.v. injection of a solution containing a test compound. 5 Min later the emetic responses (retching and vomiting) were induced by administration of subcutaneous apomorphine (0.1 mg/0.5 ml/kg) and observed for the next 60 min. The timing and number of retches and vomits observed were recorded for each animal. An individual animal was tested with at least 10 days between experiments.

SMILES	melting point	inhibition rate of emesis in the dog [1] [%]
COc1ccc(-n2nnnc2C(F)(F)F)cc1CN1C[C@@H]2CN(C(=O)CC(F)(F)F)CCN2[C@H](C(c2ccccc2)c2ccccc2)C1.Cl.Cl	155 to 160 °C	
COc1ccc(-n2nnnc2C(F)(F)F)c(OC)c1CN1C[C@@H]2CN(C(=O)CO)CCN2[C@H](C(c2ccccc2)c2ccccc2)C1.Cl.Cl	128 to 132 °C	
COc1ccc(-n2nnnc2C(F)(F)F)cc1CN1C[C@@H]2CN(C(=O)C3CCCCC3)CCN2[C@H](C(c2ccccc2)c2ccccc2)C1.Cl.Cl	169 to 174.5 °C	
COc1ccc(-n2nnnc2C(F)(F)F)c(OC)c1CN1CCN(Cc2cnn(C)c2)[C@H](C(c2ccccc2)c2ccccc2)C1.Cl.Cl [57-(1), (2R)-2-Benzhydryl-4-[2,6-dimethoxy-3-[5-(trifluoromethyl)-1H-tetrazol-1-yl]benzyl]-1-[(1-methyl-1H-pyrazol-4-yl)methyl]piperazine dihydrochloride]		100
COc1ccc(-n2nnnc2C(F)(F)F)cc1CN1C[C@@H]2CC(NC(=O)CO)CN2[C@H](C(c2ccccc2)c2ccccc2)C1.Cl.Cl (stereo partly shown)	155 to 159 °C	
COc1ccc(-n2nnnc2C(F)(F)F)c(OC)c1CN1C[C@@H]2CN(C(=O)N(C)C)CCN2[C@H](C(c2ccccc2)c2ccccc2)C1.Cl.Cl [52-(5), (6R,9aR)-6-Benzhydryl-8-[2,6-dimethoxy-3-[5-(trifluoromethyl)-1H-tetrazol-1-yl]benzyl]-N,N-dimethyloctahydro-2H-pyrazino[1,2-a]pyrazine-2-carboxamide dihydrochloride]		100
COc1ccc(-n2nnnc2C(F)(F)F)cc1CN1C[C@@H]2CN(C(C=O)C(=O)N(C)C)CCN2[C@H](C(c2ccccc2)c2ccccc2)C1.Cl.Cl (stereo partly shown)	155 to 168 °C	
COc1ccc(-n2nnnc2CC(F)(F)F)cc1CN1C[C@@H]2CN(C(=O)c3cccnc3)CCN2[C@H](C(c2ccccc2)c2ccccc2)C1.Cl.Cl.Cl	197 to 200 °C	
COc1ccc(-n2nnnc2C(F)(F)F)c(OC)c1CN1C[C@@H]2C[C@@H](NC(C)=O)CN2[C@H](C(c2ccccc2)c2ccccc2)C1.Cl.Cl [52-(14), N-[(4R, 7R, 8aS)-4-Benzhydryl-2-[2,6-dimethoxy-3-[5-(trifluoromethyl)-1H-tetrazol-1-yl]benzyl]octahydropyrrolo-[1,2-a]pyrazin-7-yl]acetamide dihydrochloride]		100
COc1ccc(-n2nnnc2C(F)(F)F)cc1CN1C[C@@H]2CN(C(=O)C(C)(C)OC(C)=O)CCN2[C@H](C(c2ccccc2)c2ccccc2)C1.Cl.Cl	143 to 148 °C	
COc1ccc(-n2nnnc2C(F)(F)F)cc1CN1C[C@@H]2CN(C(=O)C3CCCC3)CCN2[C@H](C(c2ccccc2)c2ccccc2)C1.Cl.Cl	170 to 178 °C (dec.)	
COc1ccc(-n2nnnc2C(F)(F)F)cc1CN1C[C@@H]2CN(c3cccnc3)CCN2[C@H](C(c2ccccc2)c2ccccc2)C1.Cl.Cl.Cl	175 to 178 °C	

Further lines, with some results ahead:

melting point	SMILES	inhibition rate of emesis in the dog [1] [%]
174 to 176 °C	COc1ccc(-n2nnnc2C(F)(F)F)cc1CN1C[C@@H]2CN(S(N)(=O)=O)CCN2[C@H](C(c2ccccc2)c2ccccc2)C1.Cl.Cl	
150 to 158 °C	COc1ccc(-n2nnnc2C(F)(F)F)cc1CN1C[C@@H]2CN(C(=O)[C@H](C)O)CCN2[C@H](C(c2ccccc2)c2ccccc2)C1.Cl.Cl	
165 to 190 °C	COc1ccc(-n2nnnc2C(F)(F)F)cc1CN1C[C@@H]2CN(C(N)=O)CCN2[C@H](C(c2ccccc2)c2ccccc2)C1.Cl.Cl	
160 to 170 °C	CNC(=O)N1CCN2[C@H](CN(Cc3cc(-n4nnnc4C(F)(F)F)ccc3OC)C[C@H]2C(c2ccccc2)c2ccccc2)C1.Cl.Cl	
148 to 152 °C	COc1ccc(-n2nnnc2C(F)(F)F)cc1CN1C[C@@H]2CN(S(=O)(=O)N(C)C)CCN2[C@H](C(c2ccccc2)c2ccccc2)C1.Cl.Cl	
162 to 168 °C	COc1ccc(-n2nnnc2C(F)(F)F)cc1CN1C[C@@H]2CN(S(=O)(=O)CS(C)(=O)=O)CCN2[C@H](C(c2ccccc2)c2ccccc2)C1.Cl.Cl	
132 to 135 °C	COCCC(=O)N1CCN2[C@H](CN(Cc3cc(-n4nnnc4C(F)(F)F)ccc3OC)C[C@H]2C(c2ccccc2)c2ccccc2)C1.Cl.Cl	
184 to 187 °C	COc1ccc(-n2nnnc2C(F)(F)F)cc1CN1C[C@@H]2CN(C3CCC3)CCN2[C@H](C(c2ccccc2)c2ccccc2)C1.Cl.Cl.Cl	
175 to 179 °C	COc1ccc(-n2nnnc2C(F)(F)F)cc1CN1C[C@@H]2CN(CC(C)=O)CCN2[C@H](C(c2ccccc2)c2ccccc2)C1.Cl.Cl.Cl	
138 to 153 °C	COc1ccc(-n2nnnc2C(F)(F)F)cc1CN1C[C@@H]2CN(C(=O)COC(C)=O)CCN2[C@H](C(c2ccccc2)c2ccccc2)C1.Cl.Cl	
147 to 154 °C	COc1ccc(-n2nnnc2C(F)(F)F)cc1CN1C[C@@H]2CN(C(=O)CCO)CCN2[C@H](C(c2ccccc2)c2ccccc2)C1.Cl.Cl	
158 to 164 °C	COc1ccc(-n2nnnc2C(F)(F)F)cc1CN1C[C@@H]2CN(C(=O)N(C)C)CCN2[C@H](C(c2ccccc2)c2ccccc2)C1.Cl.Cl	
140 to 159 °C	COc1ccc(-n2nnnc2C(F)(F)F)cc1CN1C[C@@H]2CN(C(=O)CO)CCN2[C@H](C(c2ccccc2)c2ccccc2)C1.Cl.Cl	
